Read-outs that look alike come from different tables or passages of the source.
Key:
[1] = target: EGFR L858R/C797S (Homo sapiens, UniProt P00533, C797S/L858R); assay: Biochemical EGFR kinase assay (Lance Ultra TR-FRET), double mutant L858R/C797S
In short: (§1)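 In this biochemical assay, phosphorylation after a one-hour room-temperature reaction was detected with europium-labelled anti-phosphopeptide antibody at 2 nM final concentration.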

[2] = target: EGFR del19/T790M/C797S (Homo sapiens, UniProt P00533, C797S/DEL746-750/T790M); assay: Biochemical EGFR kinase assay (Lance Ultra TR-FRET), triple mutant del19/T790M/C797S
In short: as §1

[3] = target: EGFR L858R/T790M/C797S (Homo sapiens, UniProt P00533, C797S/L858R/T790M); assay: Biochemical EGFR kinase assay (Lance Ultra TR-FRET), triple mutant L858R/T790M/C797S
Chain of EGFR L858R/T790M/C797S (P00533 25-1210 T790M/C797S/L858R): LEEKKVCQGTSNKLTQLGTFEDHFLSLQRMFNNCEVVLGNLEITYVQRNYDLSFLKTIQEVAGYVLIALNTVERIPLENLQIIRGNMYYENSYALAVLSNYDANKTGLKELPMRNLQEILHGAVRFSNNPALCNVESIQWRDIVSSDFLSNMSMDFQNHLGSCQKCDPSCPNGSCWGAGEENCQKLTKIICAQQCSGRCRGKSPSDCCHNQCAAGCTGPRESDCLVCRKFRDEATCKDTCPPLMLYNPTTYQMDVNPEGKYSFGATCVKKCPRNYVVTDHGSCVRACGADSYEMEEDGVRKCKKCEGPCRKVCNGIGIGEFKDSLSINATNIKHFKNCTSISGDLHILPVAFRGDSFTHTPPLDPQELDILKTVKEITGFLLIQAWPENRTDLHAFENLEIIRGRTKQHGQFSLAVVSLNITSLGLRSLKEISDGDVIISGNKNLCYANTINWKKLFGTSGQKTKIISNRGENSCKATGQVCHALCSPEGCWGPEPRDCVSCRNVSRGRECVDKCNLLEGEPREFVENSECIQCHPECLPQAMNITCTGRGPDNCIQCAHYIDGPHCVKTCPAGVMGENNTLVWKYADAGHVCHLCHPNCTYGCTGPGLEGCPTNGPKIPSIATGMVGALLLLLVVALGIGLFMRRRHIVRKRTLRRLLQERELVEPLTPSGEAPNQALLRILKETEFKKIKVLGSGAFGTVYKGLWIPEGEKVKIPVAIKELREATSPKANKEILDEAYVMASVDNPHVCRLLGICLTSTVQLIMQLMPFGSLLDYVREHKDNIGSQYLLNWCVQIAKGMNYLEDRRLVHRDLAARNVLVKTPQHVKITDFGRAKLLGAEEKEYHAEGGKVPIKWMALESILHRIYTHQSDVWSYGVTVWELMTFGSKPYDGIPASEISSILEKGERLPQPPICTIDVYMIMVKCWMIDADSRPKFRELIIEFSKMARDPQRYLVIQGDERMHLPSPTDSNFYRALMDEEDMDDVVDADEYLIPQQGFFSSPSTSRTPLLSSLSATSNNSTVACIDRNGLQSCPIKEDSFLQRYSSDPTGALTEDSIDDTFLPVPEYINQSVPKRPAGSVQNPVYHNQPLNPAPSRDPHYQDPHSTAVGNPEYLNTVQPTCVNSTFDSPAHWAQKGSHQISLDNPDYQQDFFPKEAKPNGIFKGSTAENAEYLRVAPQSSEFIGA
In short: as §1

[4] = target: EGFR del19/C797S (Homo sapiens, UniProt P00533, C797S/DEL746-750); assay: Biochemical EGFR kinase assay (Lance Ultra TR-FRET), double mutant del19/C797S
Chain of EGFR del19/C797S (P00533 with tags, fused parts or gaps DEL746-750/C797S): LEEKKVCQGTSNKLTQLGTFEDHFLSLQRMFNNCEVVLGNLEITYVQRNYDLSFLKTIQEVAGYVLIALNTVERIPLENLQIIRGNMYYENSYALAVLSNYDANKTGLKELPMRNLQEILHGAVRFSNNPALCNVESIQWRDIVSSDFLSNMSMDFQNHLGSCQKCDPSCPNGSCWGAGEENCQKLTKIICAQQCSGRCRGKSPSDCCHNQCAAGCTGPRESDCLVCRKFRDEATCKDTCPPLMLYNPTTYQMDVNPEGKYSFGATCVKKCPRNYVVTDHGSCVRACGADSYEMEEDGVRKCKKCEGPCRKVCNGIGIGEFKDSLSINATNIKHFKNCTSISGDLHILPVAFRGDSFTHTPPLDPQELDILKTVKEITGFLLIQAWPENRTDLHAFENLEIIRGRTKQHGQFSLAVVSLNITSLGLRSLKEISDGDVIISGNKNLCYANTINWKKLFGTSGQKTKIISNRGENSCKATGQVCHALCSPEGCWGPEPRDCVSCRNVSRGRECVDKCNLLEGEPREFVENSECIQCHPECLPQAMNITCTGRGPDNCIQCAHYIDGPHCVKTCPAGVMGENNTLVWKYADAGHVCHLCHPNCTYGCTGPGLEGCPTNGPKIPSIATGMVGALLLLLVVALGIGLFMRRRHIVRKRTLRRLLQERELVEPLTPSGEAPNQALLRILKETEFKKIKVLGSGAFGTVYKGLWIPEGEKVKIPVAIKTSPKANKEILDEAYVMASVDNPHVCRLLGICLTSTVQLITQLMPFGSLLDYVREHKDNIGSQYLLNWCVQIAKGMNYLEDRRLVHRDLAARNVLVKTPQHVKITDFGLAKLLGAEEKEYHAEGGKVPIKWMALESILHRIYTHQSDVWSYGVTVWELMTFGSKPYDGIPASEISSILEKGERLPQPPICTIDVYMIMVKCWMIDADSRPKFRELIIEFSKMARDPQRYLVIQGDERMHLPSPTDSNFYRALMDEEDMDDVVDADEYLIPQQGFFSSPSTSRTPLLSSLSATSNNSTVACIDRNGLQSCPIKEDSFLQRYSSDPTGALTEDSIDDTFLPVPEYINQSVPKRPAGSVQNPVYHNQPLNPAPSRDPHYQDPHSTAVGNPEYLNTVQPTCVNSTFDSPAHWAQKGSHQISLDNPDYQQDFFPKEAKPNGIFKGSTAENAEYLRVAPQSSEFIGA
In short: as §1

[5] = target: EGFR wildtype (Homo sapiens, UniProt P00533); assay: Biochemical EGFR kinase assay (Lance Ultra TR-FRET), wildtype
Chain of EGFR wildtype (P00533 25-1210): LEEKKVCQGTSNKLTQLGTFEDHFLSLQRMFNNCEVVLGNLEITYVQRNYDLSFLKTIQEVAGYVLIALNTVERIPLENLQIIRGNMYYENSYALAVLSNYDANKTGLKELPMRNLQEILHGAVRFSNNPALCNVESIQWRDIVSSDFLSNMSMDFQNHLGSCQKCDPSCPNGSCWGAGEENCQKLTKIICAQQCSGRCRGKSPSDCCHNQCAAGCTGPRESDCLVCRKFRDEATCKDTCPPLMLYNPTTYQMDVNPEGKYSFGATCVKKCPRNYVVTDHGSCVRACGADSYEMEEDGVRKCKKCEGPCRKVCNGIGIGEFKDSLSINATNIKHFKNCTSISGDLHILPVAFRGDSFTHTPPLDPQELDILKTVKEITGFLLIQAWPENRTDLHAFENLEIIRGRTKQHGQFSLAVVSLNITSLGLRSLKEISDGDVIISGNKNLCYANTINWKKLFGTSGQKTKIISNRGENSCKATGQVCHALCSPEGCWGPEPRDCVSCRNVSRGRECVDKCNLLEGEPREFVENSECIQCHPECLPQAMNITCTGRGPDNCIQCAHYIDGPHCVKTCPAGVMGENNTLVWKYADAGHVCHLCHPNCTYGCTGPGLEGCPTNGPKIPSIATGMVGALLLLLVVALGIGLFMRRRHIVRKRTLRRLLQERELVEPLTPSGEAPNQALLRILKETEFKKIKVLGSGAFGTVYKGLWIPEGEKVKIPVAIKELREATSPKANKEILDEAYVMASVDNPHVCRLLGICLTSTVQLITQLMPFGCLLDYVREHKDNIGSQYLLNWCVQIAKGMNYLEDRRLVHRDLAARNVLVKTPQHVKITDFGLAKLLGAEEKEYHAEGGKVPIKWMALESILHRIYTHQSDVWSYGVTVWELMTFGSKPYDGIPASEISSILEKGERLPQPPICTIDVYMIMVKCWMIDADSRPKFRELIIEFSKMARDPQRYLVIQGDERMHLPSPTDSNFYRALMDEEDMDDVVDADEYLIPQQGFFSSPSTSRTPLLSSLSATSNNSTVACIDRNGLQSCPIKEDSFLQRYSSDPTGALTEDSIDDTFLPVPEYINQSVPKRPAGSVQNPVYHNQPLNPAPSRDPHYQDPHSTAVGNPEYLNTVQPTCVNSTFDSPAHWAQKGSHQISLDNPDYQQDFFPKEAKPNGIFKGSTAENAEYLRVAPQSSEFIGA
In short: as §1

[6] = IC50 L858R/C797S (nM) 100 μM ATP, 100 μM ATP
[7] = Km ATP, read-out: IC50 L858R/C797S (nM) Km ATP
[8] = IC50 del19/T790M/C797S (nM) 100 μM ATP, 100 μM ATP
[9] = Km ATP, read-out: IC50 del19/T790M/C797S (nM) Km ATP
[10] = IC50 L858R/T790M/C797S (nM) 100 μM ATP, 100 μM ATP
[11] = Km ATP, read-out: IC50 L858R/T790M/C797S (nM) Km ATP
[12] = IC50 del19/C797S (nM) 100 μM ATP, 100 μM ATP
[13] = Km ATP, read-out: IC50 del19/C797S (nM) Km ATP
[14] = IC50 WT (nM) 100 μM ATP, 100 μM ATP
[15] = Km ATP, read-out: IC50 WT (nM) Km ATP

Chain of EGFR L858R/C797S (P00533 25-1210 C797S/L858R): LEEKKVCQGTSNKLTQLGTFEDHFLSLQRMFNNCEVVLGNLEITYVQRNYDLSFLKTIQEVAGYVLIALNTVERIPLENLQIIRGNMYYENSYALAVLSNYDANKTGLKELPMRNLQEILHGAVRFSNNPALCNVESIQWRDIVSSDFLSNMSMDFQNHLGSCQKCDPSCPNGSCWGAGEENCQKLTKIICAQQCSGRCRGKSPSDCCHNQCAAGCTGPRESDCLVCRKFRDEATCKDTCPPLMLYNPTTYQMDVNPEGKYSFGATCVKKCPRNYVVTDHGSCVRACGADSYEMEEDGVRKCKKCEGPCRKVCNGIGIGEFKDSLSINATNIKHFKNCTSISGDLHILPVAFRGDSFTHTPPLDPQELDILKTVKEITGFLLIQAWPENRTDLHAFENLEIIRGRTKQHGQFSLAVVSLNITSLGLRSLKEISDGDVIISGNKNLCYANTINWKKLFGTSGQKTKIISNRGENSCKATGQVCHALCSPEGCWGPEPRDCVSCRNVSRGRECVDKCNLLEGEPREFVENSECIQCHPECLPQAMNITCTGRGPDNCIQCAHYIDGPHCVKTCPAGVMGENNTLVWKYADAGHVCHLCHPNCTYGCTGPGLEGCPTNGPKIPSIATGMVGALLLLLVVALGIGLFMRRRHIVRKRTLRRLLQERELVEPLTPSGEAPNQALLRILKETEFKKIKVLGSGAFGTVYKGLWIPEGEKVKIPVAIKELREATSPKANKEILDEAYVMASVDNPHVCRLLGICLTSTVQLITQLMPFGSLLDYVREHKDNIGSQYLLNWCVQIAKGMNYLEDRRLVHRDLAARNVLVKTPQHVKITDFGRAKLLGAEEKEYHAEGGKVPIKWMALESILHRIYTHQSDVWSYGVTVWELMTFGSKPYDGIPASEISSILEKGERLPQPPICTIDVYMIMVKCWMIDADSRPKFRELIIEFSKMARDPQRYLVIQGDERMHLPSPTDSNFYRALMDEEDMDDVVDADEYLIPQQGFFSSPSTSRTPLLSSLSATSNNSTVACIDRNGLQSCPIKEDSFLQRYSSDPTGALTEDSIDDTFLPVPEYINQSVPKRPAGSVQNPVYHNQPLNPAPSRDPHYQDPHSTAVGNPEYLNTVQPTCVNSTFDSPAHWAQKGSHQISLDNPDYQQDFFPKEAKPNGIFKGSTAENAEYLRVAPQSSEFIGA

Structure (SMILES) | IC50 [1, 6] [nM] | IC50 [1, 7] [nM] | IC50 [2, 8] [nM] | IC50 [2, 9] [nM] | IC50 [3, 10] [nM] | IC50 [3, 11] [nM] | IC50 [4, 12] [nM] | IC50 [4, 13] [nM] | IC50 [5, 14] [nM] | IC50 [5, 15] [nM]
CC(C)(O)c1ccnc(-c2cnc(Nc3ccnc(-c4cnn(S(=O)(=O)C5CC5)c4)n3)cc2N[C@H]2CC[C@@](C)(O)CC2)c1 [Example 108, (1s,4s)-4-((6′-((2-(1-(Cyclopropylsulfonyl)-1H-pyrazol-4-yl)pyrimidin-4-yl)amino)-4-(2-hydroxypropan-2-yl)-[2,3′-bipyridin]-4′-yl)amino)-1-methylcyclohexan-1-ol] | 3.6 | 0.4 | 0.4 | 0.4 | 0.2 | 0.2 | 0.9 | 0.4 | 1860 | 6.9
CC(C)(O)c1ccnc(-c2cnc(Nc3ccnc(-c4cnn(S(=O)(=O)C5CC5)c4)n3)cc2N[C@H]2CC[C@@H](C(C)(C)O)CC2)c1 [Example 109, 2-(6′-((2-(1-(Cyclopropylsulfonyl)-1H-pyrazol-4-yl)pyrimidin-4-yl)amino)-4′-(((1s,4s)-4-(2-hydroxypropan-2-yl)cyclohexyl)amino)-[2,3′-bipyridin]-4-yl)propan-2-ol] | 11.1 | 0.1 |  | 2 | 0.5 | 0.6 | 6.4 | 0.8 | 1360 | 5.2
CC(C)(O)[C@H]1CC[C@@H](Nc2cc(Nc3ccnc(-c4cnn(S(=O)(=O)C5CC5)c4)n3)ncc2-c2cc(CN3CCC(F)(F)CC3)ccn2)CC1 [Example 114, 2-((1s,4s)-4-((6′-((2-(1-(Cyclopropylsulfonyl)-1H-pyrazol-4-yl)pyrimidin-4-yl)amino)-4-((4,4-difluoropiperidin-1-yl)methyl)-[2,3′-bipyridin]-4′-yl)amino)cyclohexyl)propan-2-ol] | 33.7 | 15.7 | 11.2 | 8.5 | 4.5 | 2.8 | 29.9 | 27.1 | 653 | 46.8
CN(C)CCOc1cnc(-c2cnc(Nc3ccnc(-c4cnn(S(=O)(=O)C5CC5)c4)n3)cc2N[C@H]2CC[C@@H](CO)CC2)cn1 [Example 116, ((1s,4s)-4-((2-((2-(1-(Cyclopropylsulfonyl)-1H-pyrazol-4-yl)pyrimidin-4-yl)amino)-5-(5-(2-(dimethylamino)ethoxy)pyrazin-2-yl)pyridin-4-yl)amino)cyclohexyl)methanol] | 0.3 | 0.1 | 0.1 | 0.1 | 0.04 | 0.04 | 0.1 | 0.1 | 384 | 0.4
CN(C)CCOc1cnc(-c2cnc(Nc3ccnc(-c4cnn(S(=O)(=O)C5CC5)c4)n3)cc2N[C@H]2CC[C@@H](C(C)(C)O)CC2)cn1 [Example 117, 2-((1s,4s)-4-((2-((2-(1-(Cyclopropylsulfonyl)-1H-pyrazol-4-yl)pyrimidin-4-yl)amino)-5-(5-(2-(dimethylamino)ethoxy)pyrazin-2-yl)pyridin-4-yl)amino)cyclohexyl)propan-2-ol] | 0.5 | 0.2 | 0.4 | 0.2 | 0.1 | 0.1 | 0.5 | 0.3 | 6500 | 1.9
CC(C)(O)c1cnc(-c2cnc(Nc3ccnc(-c4cnn(S(=O)(=O)C5CC5)c4)n3)cc2N[C@H]2CC[C@@](C)(O)CC2)cn1 [Example 118, (1s,4s)-4-((2-((2-(1-(Cyclopropylsulfonyl)-1H-pyrazol-4-yl)pyrimidin-4-yl)amino)-5-(5-(2-hydroxypropan-2-yl)pyrazin-2-yl)pyridin-4-yl)amino)-1-methylcyclohexan-1-ol] | 0.7 | 0.05 | 0.04 | 0.1 | 0.2 | 0.1 | 0.3 | 0.1 | 400 | 
CC(C)(O)c1cnc(-c2cnc(Nc3ccnc(-c4cnn(S(=O)(=O)C5CC5)c4)n3)cc2N[C@H]2CC[C@@H](C(C)(C)O)CC2)cn1 [Example 120, 2-(5-(6-((2-(1-(Cyclopropylsulfonyl)-1H-pyrazol-4-yl)pyrimidin-4-yl)amino)-4-(((1s,4s)-4-(2-hydroxypropan-2-yl)cyclohexyl)amino)pyridin-3-yl)pyrazin-2-yl)propan-2-ol] |  | 0.1 | 0.2 | 0.2 | 0.4 | 0.1 | 0.7 | 0.5 | 968 | 4.3
CC(C)Nc1cc(Nc2ccnc(-c3cnn(S(=O)(=O)C4CC4)c3)n2)ncc1-c1cnc(C(C)(C)O)cn1 [Example 121, 2-(5-(6-((2-(1-(Cyclopropylsulfonyl)-1H-pyrazol-4-yl)pyrimidin-4-yl)amino)-4-(isopropylamino)pyridin-3-yl)pyrazin-2-yl)propan-2-ol] |  | 2.9 |  | 0.5 |  | 0.2 |  | 4.6 |  | 22.6

Continued by falling IC50 [1, 7], values first:

IC50 [1, 6] [nM] | IC50 [1, 7] [nM] | IC50 [2, 8] [nM] | IC50 [2, 9] [nM] | IC50 [3, 10] [nM] | IC50 [3, 11] [nM] | IC50 [4, 12] [nM] | IC50 [4, 13] [nM] | IC50 [5, 14] [nM] | IC50 [5, 15] [nM] | Structure (SMILES)
20.8 | 8.8 | 5.3 | 7.5 | 3.2 | 2.3 | 19.9 | 11 | > 10000 | 15 | O=S(=O)(C1CC1)n1cc(-c2nccc(Nc3cc(N[C@H]4CC[C@@H](CO)CC4)c(-c4cc(CN5CCC(F)(F)CC5)ccn4)cn3)n2)cn1 [Example 113, ((1s,4s)-4-((6′-((2-(1-(Cyclopropylsulfonyl)-1H-pyrazol-4-yl)pyrimidin-4-yl)amino)-4-((4,4-difluoropiperidin-1-yl)methyl)-[2,3′-bipyridin]-4′-yl)amino)cyclohexyl)methanol]
6.9 | 6.8 | 5.7 | 4.5 | 3.6 | 2 | 23.2 | 5.1 | > 10000 | 11.7 | C[C@]1(O)CC[C@@H](Nc2cc(Nc3ccnc(-c4cnn(S(=O)(=O)C5CC5)c4)n3)ncc2-c2cc(CN3CCC(F)(F)CC3)ccn2)CC1 [Example 112, (1s,4s)-4-((6′-((2-(1-(Cyclopropylsulfonyl)-1H-pyrazol-4-yl)pyrimidin-4-yl)amino)-4-((4,4-difluoropiperidin-1-yl)methyl)-[2,3′-bipyridin]-4′-yl)amino)-1-methylcyclohexan-1-ol]
0.5 | 0.1 | 0.4 | 0.1 | 0.1 | 0.1 | 0.8 | 0.4 | > 10000 | 1.8 | CN(C)CCOc1cnc(-c2cnc(Nc3ccnc(-c4cnn(S(=O)(=O)C5CC5)c4)n3)cc2NC2CCC(C)(O)CC2)cn1 (stereo not drawn) [Example 115, (1s,4s)-4-((2-((2-(1-(Cyclopropylsulfonyl)-1H-pyrazol-4-yl)pyrimidin-4-yl)amino)-5-(5-(2-(dimethylamino)ethoxy)pyrazin-2-yl)pyridin-4-yl)amino)-1-methylcyclohexan-1-ol]
0.5 | 0.04 | 0.2 | 0.1 | 0.1 | 0.1 | 0.3 | 0.3 | 178 | 0.9 | CN(C)C[C@H]1CC[C@@H](Nc2cc(Nc3ccnc(-c4cnn(S(=O)(=O)C5CC5)c4)n3)ncc2-c2cc(C(C)(C)O)ccn2)CC1 [Example 110, 2-(6′-((2-(1-(Cyclopropylsulfonyl)-1H-pyrazol-4-yl)pyrimidin-4-yl)amino)-4′-(((1s,4s)-4-((dimethylamino)methyl)cyclohexyl)amino)-[2,3′-bipyridin]-4-yl)propan-2-ol]
0.4 | 0.03 | 0.5 | 0.3 | 0.2 | 0.2 | 0.7 | 0.2 | 198 | 0.7 | CC(C)(O)c1ccnc(-c2cnc(Nc3ccnc(-c4cnn(S(=O)(=O)C5CC5)c4)n3)cc2N[C@H]2CC[C@@H](CO)CC2)c1 [Example 111, 2-(6′-((2-(1-(Cyclopropylsulfonyl)-1H-pyrazol-4-yl)pyrimidin-4-yl)amino)-4′-(((1s,4s)-4-(hydroxymethyl)cyclohexyl)amino)-[2,3′-bipyridin]-4-yl)propan-2-ol]
0.3 | 0.03 | 0.1 | 0.1 | 0.2 | 0.1 | 0.2 | 0.1 | 108 | 1 | CC(C)(O)c1cnc(-c2cnc(Nc3ccnc(-c4cnn(S(=O)(=O)C5CC5)c4)n3)cc2N[C@H]2CC[C@@H](CO)CC2)cn1 [Example 119, 2-(5-(6-((2-(1-(Cyclopropylsulfonyl)-1H-pyrazol-4-yl)pyrimidin-4-yl)amino)-4-(((1s,4s)-4-(hydroxymethyl)cyclohexyl)amino)pyridin-3-yl)pyrazin-2-yl)propan-2-ol]

From US12258328B2, “6-membered heteroaryl-containing aminopyridine compounds as EGFR inhibitors” (YUHAN CORPORATION, priority 2021, dated 2025)
